Measurements as given in US20230372318A1, “METHODS FOR TREATING A SUBJECT HAVING MULTIPLE SYSTEM ATROPHY” (Theravance Biopharma R&D IP, LLC, priority 2022, published 2023).
Entries after “also recorded” stand apart in the source; their conditions may differ.

What was measured:
[1] = molecular target: T1, human recombinant DAT (Homo sapiens, UniProt Q01959); assay: Neurotransmitter uptake inhibition, [3H]-DA, hDAT cells; type: cell-based; details: mean, 3 to 9 experiments
T1 construct: expressed in transfected cells; host or cells: CHO-K1
T1 sequence (Q01959 whole entry): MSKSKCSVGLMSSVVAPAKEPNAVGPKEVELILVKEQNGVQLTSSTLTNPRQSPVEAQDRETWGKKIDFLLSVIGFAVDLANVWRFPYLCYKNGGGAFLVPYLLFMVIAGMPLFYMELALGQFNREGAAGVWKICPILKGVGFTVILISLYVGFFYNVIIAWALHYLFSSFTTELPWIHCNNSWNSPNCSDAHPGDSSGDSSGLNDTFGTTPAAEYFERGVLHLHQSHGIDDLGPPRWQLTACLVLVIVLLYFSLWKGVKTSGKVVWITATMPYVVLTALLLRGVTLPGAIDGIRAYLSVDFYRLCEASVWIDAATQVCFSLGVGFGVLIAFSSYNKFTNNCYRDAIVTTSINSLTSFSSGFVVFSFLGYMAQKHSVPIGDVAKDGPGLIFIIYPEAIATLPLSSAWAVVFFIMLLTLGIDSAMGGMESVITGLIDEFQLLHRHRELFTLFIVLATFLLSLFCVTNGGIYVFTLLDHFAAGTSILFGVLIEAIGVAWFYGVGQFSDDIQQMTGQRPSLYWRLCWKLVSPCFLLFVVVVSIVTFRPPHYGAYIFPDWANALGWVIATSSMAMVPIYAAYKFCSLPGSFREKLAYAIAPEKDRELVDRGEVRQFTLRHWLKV
From the text: (§1) The in vitro pharmacology of ampreloxetine at human recombinant and rat native monoamine transporters was characterized as described in Smith et al., Inter. J. Neuropsychopharmcol. (2015) 1-11; and Tsuruda et al., J. Pharmacol. Toxicol. Meth. (2010) 61:192-204. See also, e.g., U.S. Pat. Nos. 8,304,432 B2 and 8,304,433 B2. Radioligands were sourced commercially (Perkin Elmer LifeSciences or GE Healthcare Life Sciences).
(§2) Briefly, membranes prepared from HEK293 (Human Embryonic Kidney 293) or CHO-K1 (Chinese Hamster Ovary-K1) cells stably transfected with human recombinant SERT (HEK293-hSERT), NET (HEK293-hNET), or DAT (CHO-K1-hDAT) were incubated for 1 hr at 22° C. in the absence, or presence, of 4-[2-(2,4,6-trifluorophenoxymethyl)phenyl]piperidine and [^3H]-citalopram (1.0 nM) for SERT, [^3H]-nisoxetine (2.0 nM) for NET, and [^3H]-WIN35428 (3.0 nM) for DAT in 50 mM Tris-HCl, 120 mM NaCl, 5 mM KCl, 0.025% BSA, 100 μM ascorbic acid, pH 7.4. Rat cortical membrane preparations were incubated with [^3H]-citalopram (2.0 nM) for SERT or [^3H]-nisoxetine (4.0 nM) for NET for 1 hr at 22° C. […] Binding and uptake assays were terminated by rapid filtration and radioactivity determined by liquid scintillation spectroscopy. […] Selectivity for NET (rounded to one significant figure) was determined as follows: […]

[2] = molecular target: T2, rat native DAT (Rattus norvegicus, UniProt P23977); assay: [3H]-DA uptake inhibition, rat striatal synaptosomes; type: biochemical; details: mean
T2 construct: human recombinant and rat native monoamine transporters; from tissue; host or cells: rat striatum (synaptosomes)
T2 sequence (P23977 whole entry): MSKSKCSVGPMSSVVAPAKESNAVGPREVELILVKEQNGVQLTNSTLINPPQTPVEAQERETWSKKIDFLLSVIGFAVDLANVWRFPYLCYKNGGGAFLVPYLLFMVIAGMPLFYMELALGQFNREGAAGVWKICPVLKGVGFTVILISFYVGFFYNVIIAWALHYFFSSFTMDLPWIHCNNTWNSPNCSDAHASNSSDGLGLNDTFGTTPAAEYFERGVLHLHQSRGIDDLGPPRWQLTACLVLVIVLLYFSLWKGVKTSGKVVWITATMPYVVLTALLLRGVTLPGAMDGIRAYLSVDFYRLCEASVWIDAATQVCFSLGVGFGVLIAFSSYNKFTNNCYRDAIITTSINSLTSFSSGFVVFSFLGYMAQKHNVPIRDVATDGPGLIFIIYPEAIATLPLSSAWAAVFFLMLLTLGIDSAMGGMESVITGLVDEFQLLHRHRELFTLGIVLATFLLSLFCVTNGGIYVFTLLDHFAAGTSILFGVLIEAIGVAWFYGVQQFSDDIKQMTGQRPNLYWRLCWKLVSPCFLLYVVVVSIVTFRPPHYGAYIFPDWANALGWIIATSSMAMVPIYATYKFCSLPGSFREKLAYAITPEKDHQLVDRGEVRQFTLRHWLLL
From the text: as §1, §2

[3] = molecular target: T3, rat native SERT (Rattus norvegicus, UniProt P31652); assay: Radioligand binding, [3H]-citalopram, rat cortical membranes; details: mean (95% confidence intervals)
T3 construct: human recombinant and rat native monoamine transporters; from tissue; host or cells: rat cerebral cortex (membranes; synaptosomes)
T3 sequence (P31652 whole entry): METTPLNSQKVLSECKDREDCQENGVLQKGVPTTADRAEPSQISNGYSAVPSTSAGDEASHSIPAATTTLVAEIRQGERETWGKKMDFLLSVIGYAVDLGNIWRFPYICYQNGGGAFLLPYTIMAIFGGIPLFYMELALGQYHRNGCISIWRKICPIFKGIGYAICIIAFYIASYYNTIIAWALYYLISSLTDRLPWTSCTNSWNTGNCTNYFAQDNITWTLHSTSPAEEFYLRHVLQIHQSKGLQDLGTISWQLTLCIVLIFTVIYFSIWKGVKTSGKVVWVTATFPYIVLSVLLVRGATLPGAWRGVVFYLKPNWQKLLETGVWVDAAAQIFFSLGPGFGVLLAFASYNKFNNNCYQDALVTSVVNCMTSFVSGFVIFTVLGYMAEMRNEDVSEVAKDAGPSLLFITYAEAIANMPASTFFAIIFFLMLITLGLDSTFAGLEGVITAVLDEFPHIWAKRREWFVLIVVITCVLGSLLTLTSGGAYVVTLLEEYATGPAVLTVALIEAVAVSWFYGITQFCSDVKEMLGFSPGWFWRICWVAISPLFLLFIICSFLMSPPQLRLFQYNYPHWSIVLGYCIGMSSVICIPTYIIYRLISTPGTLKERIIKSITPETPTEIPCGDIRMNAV
From the text: as §1, §2

[4] = molecular target: T4, NET (Rattus norvegicus, UniProt Q63380); assay: Ex vivo transporter occupancy in rat spinal cord (NET)
T4 construct: from tissue; host or cells: lumbar spinal cord of orally dosed male Sprague Dawley rats
T4 sequence (Q63380 1-617): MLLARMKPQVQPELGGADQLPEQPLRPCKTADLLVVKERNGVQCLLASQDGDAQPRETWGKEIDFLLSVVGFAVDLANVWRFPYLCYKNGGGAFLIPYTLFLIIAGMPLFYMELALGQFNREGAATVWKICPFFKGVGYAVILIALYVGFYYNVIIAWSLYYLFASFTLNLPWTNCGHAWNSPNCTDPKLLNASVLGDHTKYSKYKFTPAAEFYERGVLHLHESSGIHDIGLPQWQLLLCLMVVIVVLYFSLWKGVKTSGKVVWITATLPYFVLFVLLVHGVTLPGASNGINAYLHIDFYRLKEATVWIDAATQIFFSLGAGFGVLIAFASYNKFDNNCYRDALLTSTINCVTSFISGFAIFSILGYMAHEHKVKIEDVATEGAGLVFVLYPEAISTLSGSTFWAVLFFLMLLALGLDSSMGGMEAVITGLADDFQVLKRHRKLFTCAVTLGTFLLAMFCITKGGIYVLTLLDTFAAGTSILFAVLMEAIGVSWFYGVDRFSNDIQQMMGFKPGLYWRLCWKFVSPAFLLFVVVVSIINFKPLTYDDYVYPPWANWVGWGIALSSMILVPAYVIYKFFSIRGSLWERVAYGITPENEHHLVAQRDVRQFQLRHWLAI
Experimental: Adult male Sprague Dawley rats (Charles River) were housed under controlled laboratory conditions (temperature at 21±1° C.) on a 12:12 hour light-dark cycle. Animals were given free access to food and water upon arrival to the facility and animals were acclimatized to their holding room for at least 48 hours. Animals were fasted but allowed free access to water for 15-18 hours prior to dosing.
Rats (n=6/timepoint/dose level) received a single oral dose of 4-[2-(2,4,6-trifluorophenoxymethyl)phenyl]piperidine (0.3, 1, 5, 10, 30, and 60 mg/kg) and were euthanized by decapitation at specified time points (0.5, 2, 4, 6, and 8 hr for 5 mg/kg dose level; 2 hr for 0.3, 1, 10, 30, and 60 mg/kg dose levels) post-administration. Spinal cords were dissected for ex vivo transporter occupancy and PK assessments from the same animals. The spinal cord was harvested by hydraulic extrusion using phosphate-buffered saline, and the lumbar segment dissected and frozen on dry ice. The remaining spinal cord segments were collected and homogenized in water (25% w/w) for PK analysis. All samples were stored at −80° C. until analysis.
A kinetic radioligand binding assay was used to determine NET and SERT occupancy in rat spinal cord, as described previously in Bourdet et al., J. Pharm. Exp. Ther. (2012) 341:137-145. PK/PD parameters were estimated by a compartmental modeling approach (WinNonlin Version 5.0.1, Pharsight Corporation). One- and two-compartment PK models with first-order absorption and elimination were evaluated. The one-compartment model was selected. The pharmacodynamics model was an effect compartment Emax model linked directly to the central PK compartment (WinNonlin PK Model 3, PD Model 101). Selection of models was based upon best fit in terms of visual inspection, Akaike Information Criteria, and weighted residual sum of squares using the Gauss-Newton minimization method.

[5] = test system: subjects with primary autonomic failures (MSA, PD, or PAF) and symptomatic nOH; assay: Phase 3 4-week clinical study in symptomatic nOH (Example 6)
From the text: The first Phase 3 study was a randomized, double-blind, placebo-controlled, parallel-group, multicenter study designed to evaluate its efficacy, safety, and tolerability in subjects with primary autonomic failures (MSA, PD, or PAF) and symptomatic nOH after 4 weeks of treatment.
This study was a Phase 3, randomized, double-blind, placebo-controlled, parallel-group, multicenter study to evaluate efficacy, safety, and tolerability of ampreloxetine (administered as ampreloxetine hydrochloride) in subjects with primary autonomic failures (MSA, PD, or PAF) and symptomatic nOH after four weeks of treatment. Subjects participated in the study for approximately 10 weeks.
Subjects were randomized in a 1:1 ratio to each of either ampreloxetine or placebo group stratified by the subject's disease type (MSA, PD, or PAF).
Subjects were randomized in a 1:1 ratio to receive either ampreloxetine (test product) or placebo (reference product) once daily through the end of the treatment period.
Subjects randomized to receive ampreloxetine began taking study medication on Day 2 in the morning at a dose of 10 mg and continued to take this dose once daily through the end of the treatment period.
The study consisted of three periods: (i) 4-week screening, (ii) 4-week randomized treatment, and (iii) 2-week follow up.
Following randomization and completion of study assessments, the subject received a single 10-mg dose of ampreloxetine (or matching placebo) once daily (QD) for the remaining double-blind treatment period.
The efficacy assessments for this study included: OHQ; PGI-C; and incidence of falls. The exploratory assessments included: Orthostatic standing test; PK and pharmacodynamics; Non-Motor Symptom Scale (NMSS); EQ-5D-5L; Hospital Anxiety and Depression Scale (HADS); and Burden Scale for Family Caregivers-short version (BSFC-s).
The primary study endpoint was the change from baseline in OHSA #1 (dizziness, lightheadedness, feeling faint, or feeling like blacking out) at Week 4.
The primary efficacy evaluation was the change from baseline of OHSA #1 at Week 4. Baseline was defined as Day 1 pre-dose measurement. A mixed model for repeated measures (MMRM) was fitted to compare treatments. The model included fixed effect class terms of treatment, baseline disease type (MSA, PD, PAF), week, and continuous covariate of baseline OHSA #1 score, a random subject effect, with an unstructured covariance structure using the FAS.

[6] = MSA subjects, Week 4, 10 mg, N 33

Compound: Fc1cc(F)c(OCc2ccccc2C2CCNCC2)c(F)c1 [Ampreloxetine, 4-[2-(2,4,6-trifluorophenoxymethyl)phenyl]piperidine]
- Neurotransmitter Uptake Inhibition: pIC50, DAT [1]: 6.8
- Neurotransmitter Uptake Inhibition: pIC50, DAT [2]: 6.9
- Transporter Binding: pKi, SERT [3]: 8.5 (8.3, 8.6)
- EC50 ([4]; projected from rat EC50 accounting for species differences in plasma protein binding): 0.0171 µM
- EC50, plasma concentration associated with 50% NET occupancy ([4]; rat spinal cord, oral dose): 0.0117 µg/mL
- Emax, maximal NET occupancy in spinal cord ([4]; rat, single oral dose, effect compartment PK/PD model): 92.0 % occupancy
- keo, first-order equilibration rate constant, NET ([4]; rat, central PK compartment to effect compartment): 1.78 h⁻¹
- Deaths ([5]; 10 mg once daily, 4 weeks): no deaths were reported
- Supine hypertension ([5]; 10 mg once daily, 4 weeks): no signal for supine hypertension
- Serious adverse events, number of subjects ([5]; 10 mg once daily, 4 weeks, none considered related to study drug): four
- Anxiety Total Score, Change from Baseline, LS Mean Difference ([5]; MSA subjects, Week 4, 10 mg vs placebo, P-value 0.136): −1.09
- Anxiety Total Score, Change from Baseline, LS Mean [5, 6]: −0.75
- Anxiety Total Score, Change from Baseline, Mean [5, 6]: −0.67
- Anxiety Total Score, Change from Baseline, Median [5, 6]: −1.00
- Primary endpoint: change from baseline of OHSA #1 score vs placebo ([5]; Week 4, 10 mg once daily, MSA, PD or PAF): did not meet its primary endpoint; also recorded: did not meet the primary endpoint
